What was measured:
white male mice = settings: 3.5 g dose per 1 kg live weight; cited from earlier work
[1] = system: triglyceride content of liver; settings: cited from earlier work
[2] = system: triglyceride content of the blood serum; settings: rats; cited from earlier work
cholesterol absorption [3] = settings: infusion test; cited from earlier work
cholesterol absorption [4] = settings: cited from earlier work; for cholesterol absorption lowering effect: molar quantities of the fatty acid esters
total serum cholesterol = settings: daily supply of plant sterol 2-3 g; cited from earlier work
[5] = thermal resistance of light spread at 45° C.; assay type: physicochemical; settings: fat component with 5% ester, 45° C. up to 4 hours, mixed after return to room temperature
Experimental: The polarity of the sterol/stanol esters described above is an extremely useful property. It is characteristic of compounds according to the invention, e.g. β-sitosterol dicarboxylic acid hemiesters and citrates that in lipid solutions (e.g. 2.5-5% of the fat component) they promote the mixing of the lipid and the water. […] The prepared light spread also lasted better than the comparative sample when heated to 45° C. for up to 4 hours. By improved thermal resistance is meant that after 2 hours at 45° C., more oil had separated from the comparative sample than from the sterol-containing sample. Over the next 2 hours, the separation of oil from the comparative sample continued. In the sterol-containing spread, however, negative change had ceased.

[6] = solubility in alcohol (ethanol) and lipids; assay type: physicochemical
Excerpt: According to one preferred embodiment of the invention, β-sitosterols are esterified and sterol esters are hydrogenated to form stanols. […] This achieves the significant advantage that hydrogenation can be carried out at room temperature.
Di-β-sitosteryl citrate is formed in a heterogeneous reaction between citric acid and β-sitosterol, at the same reaction conditions as described in the previous section. The compound is separated from the sterol monocitrate on the basis of solubility, using ethanol extraction. The method is based on the fact that the solubility of sterol monocitrate in ethyl alcohol is ten times that of di-β-sitosteryl citrate.
A minimum of 7 ml of water was azeotropically distilled from the reaction mixture over 7-8 hours; as the conversion approached theoretical, upon cooling no lactic acid or plant sterols were crystallized from the reaction mixture. The cooled reaction mixture was a yellowish, viscose liquid. The toluene was removed from the reaction mixture in a vacuum (29 mmHg) at a temperature of 80-90° C. […] As a whole, the material obtained was useable and contained very little or no free plant sterols and/or lactic acid.

blood cholesterol = settings: in vivo; cited from earlier work
[7] = soluble matter in spirit vinegar (10 weight-% acetic acid); assay type: physicochemical; settings: spirit vinegar with 10 weight-% acetic acid; 12 hours standing without stirring
Excerpt: 6.80 g β-sitosterol citrate from example 12 90.7 g Rajamäki Spirit Vinegar (Primalco Oy, Nurmijärvi), containing 10 weight-% acetic acid.

Compound: CC[C@H](CC[C@@H](C)[C@H]1CC[C@H]2[C@@H]3C[C@@H](OC=O)[C@@]4(O)C[C@@H](OC=O)CC[C@]4(C)[C@H]3CC[C@]12C)C(C)C [sitostane-3β-, 5α-, 6β-triol-3,6-diformiate]
- acute toxicity (white male mice): did not show toxicity
- lowering of triglyceride content of liver ([1]; guinea pigs): 54%
- lowering of triglyceride content of the blood serum [2]: moderately lower

Compound: CC[C@H](CC[C@@H](C)[C@H]1CC[C@H]2[C@@H]3CC[C@H]4C[C@@H](O)CC[C@]4(C)[C@H]3CC[C@]12C)C(C)C [β-sitostanol]
- inhibition of cholesterol absorption (cholesterol absorption [3]): 83%

Compound: oleate
- cholesterol absorption lowering effect (cholesterol absorption [4]): equally as effective

Compound: CC(=O)O [acetate]
- cholesterol absorption lowering effect (cholesterol absorption [4]): equally as effective

Compound: CC[C@H](CC[C@@H](C)[C@H]1CC[C@H]2[C@@H]3CC[C@H]4C[C@@H](O)CC[C@]4(C)[C@H]3CC[C@]12C)C(C)C [sitostanol]
- total serum cholesterol (total serum cholesterol): decrease in the total serum cholesterol

Compound: decanoate
- cholesterol absorption lowering effect (cholesterol absorption [4]): equally as effective

Compound: CC[C@H](CC[C@@H](C)[C@H]1CC[C@H]2[C@@H]3CC=C4C[C@@H](O)CC[C@]4(C)[C@H]3CC[C@]12C)C(C)C [β-sitosterol]
- response in this test ([1]; source material as comparison, which test is meant is not clear): did not give a positive response
- inhibition of cholesterol absorption (cholesterol absorption [3]): 50%

Compound: CCC(CCC(C)C1CCC2C3CC=C4CC(OC(=O)CCC(=O)O)CCC4(C)C3CCC12C)C(C)C (stereo not drawn) [Example 3, β-sitosterol Hydrogen Succinate]
- changes in the sample after heating [5]: almost reversible
- lowering of the cholesterol content of blood (cholesterol absorption [4]; compared with phytosterol monocarboxyl acid esters): as effectively as the phytosterol monocarboxyl acid esters

Compound: CC[C@H](CC[C@@H](C)[C@H]1CC[C@H]2[C@@H]3CC=C4C[C@@H](OC(=O)C(C)O)CC[C@]4(C)[C@H]3CC[C@]12C)C(C)C (stereo partly drawn) [Example 19, β-sitosterol Lactate]
- solubility in alcohol ([6]; in words): highly soluble in alcohol
- solubility in lipids and ethanol ([6]; reaction product, viscose liquid at 60-100° C.): soluble in lipids and ethanol

Compound: soy sterol-2-carbamate glutaric acid K^+—salt
- lowering blood cholesterol concentrations (blood cholesterol): proved to lower blood cholesterol concentrations

Compound: β-sitosterol citrate [Example 12]
- amount of the sterol citrate dissolved [7]: 0.74%

From patent US6441206B1, “Use of organic acid esters in dietary fat” (Raisio Benecol Ltd., priority 1997, dated 2002)
